Key:
Assay type in all cases: in vivo
[1] = tested on: sorghum; assay: Herbicidal activity test against upland field weeds (foliar treatment test); settings: Sorghum, 50 g ai/ha, scale 0-100
Procedure, shortened: (§1)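 Weeds were raised from seed or rootstocks in horticultural soil in a greenhouse (30±5° C., 14/10 h light/dark), then foliage was hand-sprayed with compound at 50 or 75 g a.i./ha in 50% acetone with 0.1% Tween-20. Control was scored visually 0–100 against untreated plants after 14 days, or 21 if needed.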

[2] = tested on: quack grass; assay: as above; parameters: key to Foliar treatment herbicidal activity, quack grass: 0 (no control); 100 (complete control); settings: 50 g ai/ha, scale 0-100
Procedure, shortened: as §1

[3] = tested on: crabgrass; assay: as above; parameters: key to Foliar treatment herbicidal activity, Crabgrass: 0 (no control); 100 (complete control); settings: 50 g ai/ha, scale 0-100; for pest or weed control at 50 g/ha: Digitaria sanguinalis
Procedure, shortened: as §1

[4] = tested on: bindweed; assay: as above; settings: 50 g ai/ha, scale 0-100
Procedure, shortened: as §1

[5] = tested on: sorghum; assay: Herbicidal activity test against upland field weeds (soil treatment test); parameters: key to Soil treatment herbicidal activity, Sorghum: 0 (no control); 100 (complete control); settings: 50 g ai/ha, scale 0 (no control) to 100 (complete control)
Procedure, shortened: (§2)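 Pre-emergence test: seeds or rootstocks were sown in fertilized sandy loam, and the next day the soil surface was sprayed with compound at 50 or 75 g a.i./ha in 50% acetone/0.1% Tween-20. Plants were grown in a greenhouse (30±5 °C, 14/10 h light/dark), then visually scored 0–100 against untreated at 14 d (21 d if needed).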

[6] = tested on: crabgrass; assay: as above; parameters: key to Soil treatment herbicidal activity, Crabgrass: 0 (no control); 100 (complete control); settings: 50 g ai/ha, scale 0 (no control) to 100 (complete control)
Procedure, shortened: as §2

[7] = tested on: fall panicum; assay: as above; parameters: key to Soil treatment herbicidal activity, Fall panicum: 0 (no control); 100 (complete control); settings: 50 g ai/ha, scale 0 (no control) to 100 (complete control)
Procedure, shortened: as §2

[8] = tested on: indian jointvetch; assay: as above; parameters: key to Soil treatment herbicidal activity, Indian jointvetch: 0 (no control); 100 (complete control); settings: 50 g ai/ha, scale 0 (no control) to 100 (complete control)
Procedure, shortened: as §2

[9] = tested on: cocklebur; assay: as above; parameters: key to Soil treatment herbicidal activity, Cocklebur: 0 (no control); 100 (complete control); settings: 50 g ai/ha, scale 0 (no control) to 100 (complete control)
Procedure, shortened: as §2

[10] = tested on: corn; assay: Phytotoxicity test for field crops (soil treatment test); parameters: key: 0 (no harm); 9 (complete withered)
Procedure, shortened: (§3)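 Pre-emergence soil spray one day after sowing in sterilized horticultural soil (pH 6.1, organic matter 1.0%), test compounds diluted in 33% acetone/0.1% Tween-20 to 19˜300 g a.i./ha. Greenhouse at 30±5° C, 14/10 h light/dark. Phytotoxicity scored visually 10 and 20 days after treatment on a 0 (no harm) to 9 (complete withered) scale versus untreated control.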

[11] = tested on: cotton; assay: as above; parameters: key: 0 (no harm); 9 (complete withered)
Procedure, shortened: as §3

[12] = tested on: rice; assay: as above; parameters: key: 0 (no harm); 9 (complete withered)
Procedure, shortened: as §3

[13] = tested on: soybean; assay: as above; parameters: key: 0 (no harm); 9 (complete withered)
Procedure, shortened: as §3

[14] = tested on: wheat; assay: as above; parameters: key: 0 (no harm); 9 (complete withered)
Procedure, shortened: as §3

[15] = 50 g ai/ha, Corn (10 days after treatment)
[16] = 50 g ai/ha, Corn (20 days after treatment)
[17] = 100 g ai/ha, Corn (10 days after treatment)
[18] = 100 g ai/ha, Corn (20 days after treatment)
[19] = 50 g ai/ha, Cotton (10 days after treatment)
[20] = 50 g ai/ha, Cotton (20 days after treatment)
[21] = 100 g ai/ha, Cotton (10 days after treatment)
[22] = 100 g ai/ha, Cotton (20 days after treatment)
[23] = 50 g ai/ha, Rice (10 days after treatment)
[24] = 50 g ai/ha, Rice (20 days after treatment)
[25] = 100 g ai/ha, Rice (10 days after treatment)
[26] = 100 g ai/ha, Rice (20 days after treatment)
[27] = 50 g ai/ha, Soybean (10 days after treatment)
[28] = 50 g ai/ha, Soybean (20 days after treatment)
[29] = 100 g ai/ha, Soybean (10 days after treatment)
[30] = 100 g ai/ha, Soybean (20 days after treatment)
[31] = 50 g ai/ha, Wheat (10 days after treatment)
[32] = 100 g ai/ha, Wheat (10 days after treatment)
[33] = 100 g ai/ha, Wheat (20 days after treatment)
[34] = 50 g ai/ha, Wheat (20 days after treatment)

Row | SMILES | plant injury at 50 g/ha [1] [%] | pest or weed control at 50 g/ha [4] [%] | Soil treatment herbicidal activity, Indian jointvetch [8] | Soil treatment phytotoxicity, Corn [10, 15] | Soil treatment phytotoxicity, Corn [10, 16] | Soil treatment phytotoxicity, Corn [10, 17] | Soil treatment phytotoxicity, Corn [10, 18] | Soil treatment phytotoxicity, Cotton [11, 19] | Soil treatment phytotoxicity, Cotton [11, 20] | Soil treatment phytotoxicity, Cotton [11, 21] | Soil treatment phytotoxicity, Cotton [11, 22] | Soil treatment phytotoxicity, Rice [12, 23] | Soil treatment phytotoxicity, Rice [12, 24] | Soil treatment phytotoxicity, Rice [12, 25] | Soil treatment phytotoxicity, Rice [12, 26] | Soil treatment phytotoxicity, Soybean [13, 28] | Soil treatment phytotoxicity, Soybean [13, 30] | Soil treatment phytotoxicity, Wheat [14, 31] | Soil treatment phytotoxicity, Wheat [14, 32] | Soil treatment phytotoxicity, Wheat [14, 33] | other results
1 | Cn1nnc(COCc2nc(C(F)(F)F)ccc2C(=S)Nc2nnnn2C)n1 [Compound No. 2-106, N-(1-methyl-1H-tetrazol-5-yl)-2-(((2-methyl-2H-tetrazol-5-yl)methoxy)methyl)-6-(trifluoromethyl)pyridin-3-carbothioamide] | 70 | 40 | 100 | 0 | 0 | 0 | 0 | 4 | 6.5 | 5 | 8 | 8 | 8 | 9 | 9 | 0 | 0 | 0 | 0 | 1 | Foliar treatment herbicidal activity, quack grass [2]: 0; pest or weed control at 50 g/ha [3]: 70%; plant injury at 50 g/ha ([5]; Sorghum): 70%; Soil treatment herbicidal activity, Crabgrass [6]: 100; Soil treatment herbicidal activity, Fall panicum [7]: 100; Soil treatment herbicidal activity, Cocklebur [9]: 100; Soil treatment phytotoxicity, Soybean [13, 27]: 0; Soil treatment phytotoxicity, Soybean [13, 29]: 0
2 | Cn1nnc(CSCc2nc(C(F)(F)F)ccc2C(=O)N(C(=O)c2ccccc2)c2nnnn2C)n1 [Compound No. 2-109, N-benzoyl-N-(1-methyl-1H-tetrazol-5-yl)-2-((((2-methyl-2H-tetrazol-5-yl)methyl)thio)methyl)-6-(trifluoromethyl)nicotinamide] | 80 | 98 | 0 | 0 | 0 | 1 | 0 | 0 | 0 | 0 | 1 | 0 | 0 | 0 | 0 | 1 | 0 | 0 | 0 | 0 | Foliar treatment herbicidal activity, quack grass [2]: 0; Foliar treatment herbicidal activity, Crabgrass [3]: 100; Soil treatment herbicidal activity, Sorghum [5]: 0; Soil treatment herbicidal activity, Crabgrass [6]: 0; Soil treatment herbicidal activity, Fall panicum [7]: 0; Soil treatment herbicidal activity, Cocklebur [9]: 0; Soil treatment phytotoxicity, Wheat [14, 34]: 0
3 | Cn1ncnc1COc1nc(C(F)(F)F)ccc1C(=O)Nc1nnnn1C [Compound No. 1-45, 2-((1-methyl-1H-1,2,4-triazol-5-yl)methoxy)-N-(1-methyl-1H-tetrazol-5-yl)-6-(trifluoromethyl)nicotinamide] | 50 | 98 | 0 | 0 | 0 | 1 | 0 | 1 | 4 | 3 | 5 | 9 | 9 | 9 | 9 | 0 | 0 | 0 | 0 | 0 | pest or weed control at 50 g/ha [2]: 40%; pest or weed control at 50 g/ha [3]: 95%; Soil treatment herbicidal activity, Sorghum [5]: 0; Soil treatment herbicidal activity, Crabgrass [6]: 100; pest or weed control at 50 g/ha ([7]; Panicum dichotomiflorum): 98%; Soil treatment herbicidal activity, Cocklebur [9]: 0; Soil treatment phytotoxicity, Soybean [13, 27]: 0; Soil treatment phytotoxicity, Soybean [13, 29]: 0; Soil treatment phytotoxicity, Wheat [14, 34]: 0
4 | Cn1nnc(CSCc2nc(C(F)F)ccc2C(=O)Nc2nnnn2C)n1 [Compound No. 2-108, 6-(difluoromethyl)-N-(1-methyl-1H-tetrazol-5-yl)-2-((((2-methyl-2H-tetrazol-5-yl)methyl)thio)methyl)nicotinamide] | 70 | 90 | 0 | 0 | 0 | 0 | 0 | 0 | 1 | 0 | 3 | 0 | 0 | 0 | 0 | 0 | 3 | 0 | 0 | 0 | Foliar treatment herbicidal activity, quack grass [2]: 0; pest or weed control at 50 g/ha [3]: 60%; Soil treatment herbicidal activity, Sorghum [5]: 0; Soil treatment herbicidal activity, Crabgrass [6]: 0; Soil treatment herbicidal activity, Fall panicum [7]: 0; Soil treatment herbicidal activity, Cocklebur [9]: 0; Soil treatment phytotoxicity, Wheat [14, 34]: 0
5 | Cn1nnc(COCc2nc(C(F)(F)F)ccc2C(=O)Nc2nnnn2C)n1 [Compound No. 2-59, N-(1-methyl-1H-tetrazol-5-yl)-2-(((2-methyl-2H-tetrazol-5-yl)methoxy)methyl)-6-(trifluoromethyl)nicotinamide] | 98 | 90 | 100 | 0 | 0 | 0 | 0 | 1 | 6 | 3 | 9 | 6 | 8 | 8 | 8 | 5 | 6 | 0 | 0 | 0 | Foliar treatment herbicidal activity, quack grass [2]: 0; pest or weed control at 50 g/ha [3]: 98%; Soil treatment herbicidal activity, Sorghum [5]: 100; pest or weed control at 50 g/ha ([6]; Digitaria sanguinalis): 98%; Soil treatment herbicidal activity, Fall panicum [7]: 100; pest or weed control at 50 g/ha ([9]; Xanthium strumarium): 20%; Soil treatment phytotoxicity, Soybean [13, 27]: 2; Soil treatment phytotoxicity, Soybean [13, 29]: 3; Soil treatment phytotoxicity, Wheat [14, 34]: 0
